Assay results published in patent publication US3943137A, “Acronycine derivatives” (University of Kansas Endowment Association, priority 1973, dated 1976).
“And” between values parts separate entries of the source, which are not always exact repeats. Identical values can stand only once. Counter-ions that a name gives are not always drawn. Like-named read-outs stand apart in the source and are kept apart here.

Assays:
Type in all cases: physicochemical
[1] = Hydrolysis of acylacronycinium salts in aqueous solution (no complexing agent); conditions: for half-life: read-out: t1/2 (hydrolysis)
Solubility = conditions: water; for solubility (qualitative): acetone, benzene
[2] = Hydrolysis of acylacronycinium salts in presence of complexing agents; conditions: for half-life at 100 µM: 10^-4 M drug, 25° C., pH 6.0, read-out: Apparent half-life, t1/2; for k (hydrolysis): gentisic acid (0.05 M)
Experimental: In studying the kinetics of hydrolysis of the aforesaid quaternary acyl acronycinium salts to yield acronycine, it was determined that the increased solubility and the rapid rate of hydrolysis were such that said quaternary derivatives were eminently well suited for use as pro-drugs. Nevertheless, the facility with which hydrolysis occurred in water presented one problem of too rapid precipitation from solution as a consequence of the formation of the slightly soluble acronycine free base. In order to prevent any objectionable hydrolysis of the pro-drug in aqueous solution prior to administration, it was discovered that the hydrolytic rate thereof could be retarded by the formation of intermolecular complexes therewith. […] Moreover, since complexation is an equilibrium phenomenon, extensive complexation occurs in the relatively concentrated drug solution. However, upon dilution with aqueous media such as body fluids, the complex species dissociates, and the pro-drug is then rapidly hydrolyzed to the desired drug species, namely, the acronycine free base. Exemplary of the complexing agents which can be used in aqueous solutions of the acylacronycinium salts to retard the hydrolysis thereof are a wide variety of the organic acids and alkali metal salts thereof, preferably the cyclic and aromatic organic acids, and most preferably the hydroxy aromatic acids. Representative of same are gentisic acid, gamma-resorcylic acid, p-hydroxycinnamic acid, 2-furoic acid, m-hydroxycinnamic acid, 3,4-dimethylcinnamic acid and 3-methylgentisic acid, and the sodium and other salts thereof. A suitably stable and useful formulation of an acylacronycinium salt for use in the preparation of pharmaceutical solutions can be simply made by preparing a powder mixture of the desired acylacronycinium salt and a suitable complexing agent in such proportions and amounts that upon addition of an aqueous solvent, the resulting solution would be of a composition such that the hydrolysis of the acylacronycinium salt would be greatly retarded.
Among the number of the hydroxy aromatic acids, particularly the hydroxy benzoic acids that have been utilized according to the invention, excellent results have been attained with the preferred 2,5-dihydroxy-benzoic acid (gentisic acid). […] Mathematical analysis of the results dictates describing this system by two equilibria; one to one complex and one to two complex formation (one drug and two ligand), with the 1:1 complex and the free drug hydrolyzing with half-lives of 120 and 23 minutes, respectively. The solid curve of the FIGURE of drawing illustrates the result of such model. Constants required for the t1/2 calculations were as follows:
and the experimental conditions were:
Use of suitable complexing agents in aqueous solutions of the acylacronycinium salts retarded the hydrolysis of such compounds. Some of the complexing agents used were the following: sodium gentisate, sodium gamma-resorcylate and sodium cinnamate. Table I reflects the effects of sodium gentisate concentration on the apparent rate of hydrolysis of acetylacronycinium perchlorate.
Apparent half-line of acetylacronycinium perchlorate
(10^-^4 M) as a function of sodium gentisate concentration
in water at 25° C. pH = 6.0.
Experimental: Twenty-five mg of acetylacronycinium perchlorate and 4.6 g of sodium gentisate were powdered, mixed and placed in a suitable vial and sealed. Just prior to use, 100 ml of water was added to the vial, and the solid material dissolved rapidly, yielding a solution which was about 10^^-3 M with respect to acetylacronycinium perchlorate and about 0.2 Molar with respect to sodium gentisate.

[3] = acetate buffer (25° C.), replicate runs
[4] = phosphate buffer (25° C.), replicate runs
[5] = phosphate buffer, 25° C., pH not given, three runs
[6] = phosphate buffer, pH 7.60, 25°C

COc1cc2c(c3c1c(OC(C)=O)c1ccccc1[n+]3C)C=CC(C)(C)O2 [Acetylacronycinium Chloride]
k (hydrolysis) ([1]; methanol/water (90/10), pH 0.28): 0.000413 s⁻¹ | half-life ([1]; methanol/water (90/10), pH 0.28, methanol/water (90/10), pH 0.28): 28 min | k (hydrolysis) ([1]; methanol/water (90/10), pH 1.28): 0.000417 s⁻¹ | half-life ([1]; methanol/water (90/10), pH 1.28, methanol/water (90/10), pH 1.28): 27.7 min

COc1cc2c(c3c1c(OC(C)=O)c1ccccc1[n+]3C)C=CC(C)(C)O2 [Acetylacronycinium Sulfate]
k (hydrolysis) [1, 3]: 0.000436 s⁻¹ and 0.000423 s⁻¹ | t1/2 (hydrolysis) [1, 3]: 27.3 min | half-life ([1]; acetate buffer, acetate buffer (25° C.), replicate runs): 26.5 min | k (hydrolysis) [1, 4]: 0.0006 s⁻¹ and 0.000586 s⁻¹ and 0.000538 s⁻¹ | t1/2 (hydrolysis) [1, 4]: 19.7 min and 21.5 min | half-life ([1]; phosphate buffer, phosphate buffer (25° C.), replicate runs): 19.3 min

COc1cc2c(c3c1c(OC(=O)C(C)C)c1ccccc1[n+]3C)C=CC(C)(C)O2 [Isobutyrylacronycinium Perchlorate]
k (hydrolysis) ([1]; phosphate buffer, pH 6.33, 24° C.): 0.0003428 s⁻¹ | half-life ([1]; phosphate buffer, pH 6.33, phosphate buffer, pH 6.33, 24° C.): 33.7 min

COc1cc2c(c3c1c(OC(=O)C(F)(F)F)c1ccccc1[n+]3C)C=CC(C)(C)O2 [Trifluoroacetylacronycinium Perchlorate]
reactivity with chloroform ([1]; chloroform): little reaction with chloroform (until water was added) | hydrolysis on storage ([1]; overnight in desiccator while still moist): Some hydrolysis occurred overnight | reactivity with water and methanol ([1]; water and methanol): reacted very quickly with water and methanol

COc1cc2c(c3c1c(OC(C)=O)c1ccccc1[n+]3C)C=CC(C)(C)O2 [acetylacronycinium perchlorate, Acetylacronycinium Perchlorate]
solubility (qualitative) (Solubility): insoluble in benzene, but soluble in water and acetone | increase in solubility over the free base (Solubility): hundredfold increase in solubility | solubility (Solubility; read-out: Solubility): ~250 µg/mL | solubility (Solubility; read-out: solubility in water): 250 µg/mL | enthalpy of activation of hydrolysis [1]: about 20 kcal/mole | effect of dielectric constant on hydrolysis rate ([1]; increasing dielectric constant): greatly increased | effect of ionic strength, pH, anion, ester group size on hydrolysis rate ([1]; ionic strength, pH (below 8-9), anion, ester group size): remarkably insensitive | t1/2 and k of hydrolysis, 3,4-dihydroxycinnamic acid complex ([2]; 3,4-dihydroxycinnamic acid, pH 6.5, 25° C., 0.05 M phosphate buffer): roughly comparable to those generated with the sodium gentisate complex | t1/2 and k of hydrolysis, cinnamic acid complex ([2]; cinnamic acid, pH 6.5, 25° C., 0.05 M phosphate buffer): roughly comparable to those generated with the sodium gentisate complex | t1/2 and k of hydrolysis, gamma-resorcylic acid complex ([2]; gamma-resorcylic acid, pH 6.5, 25° C., 0.05 M phosphate buffer): roughly comparable to those generated with the sodium gentisate complex | t1/2 1:2 Complex ([2]; model constant, sodium gentisate, μ = 1.0 M, 25.0°C, pH 6.5, 520 nm): .infin. | t1/2 and k of hydrolysis, p-hydroxycinnamic acid complex ([2]; p-hydroxycinnamic acid, pH 6.5, 25° C., 0.05 M phosphate buffer): roughly comparable to those generated with the sodium gentisate complex | rate of hydrolysis with sodium gentisate ([2]; sodium gentisate, FIGURE): greatly reduced | K1:1 (complexation constant) ([2]; sodium gentisate, one drug, one ligand, μ = 1.0 M, 25.0°C, pH 6.5, 520 nm, in M^-1 (unit assumed)): 4,081 | k1:2 (complexation constant) ([2]; sodium gentisate, one drug, two ligand, μ = 1.0 M, 25.0°C, pH 6.5, 520 nm): 80,000 | half-life at 1000 µM ([2]; water, about 10^-3 M drug, about 0.2 Molar sodium gentisate, water, reconstituted powder mixture, read-out: apparent hydrolytic half-life (converted)): ~570 min | half-life at 100 µM ([2]; water, pH 6, sodium gentisate 0 M/l, water): 23 min | half-life at 100 µM ([2]; water, pH 6, sodium gentisate 0.1 M/l, water): 350 min | half-life at 100 µM ([2]; water, pH 6, sodium gentisate 0.2 M/l, water): 578 min | half-life at 100 µM ([2]; water, pH 6, sodium gentisate 1 × 10^-2 M/l, water): 125 min | half-life at 100 µM ([2]; water, pH 6, sodium gentisate 2 × 10^-2 M/l, water): 156 min | half-life at 100 µM ([2]; water, pH 6, sodium gentisate 2.5 × 10^-3 M/l, water): 93 min | half-life at 100 µM ([2]; water, pH 6, sodium gentisate 4 × 10^-2 M/l, water): 207 min | half-life at 100 µM ([2]; water, pH 6, sodium gentisate 5 × 10^-3 M/l, water): 108 min | half-life at 100 µM ([2]; water, pH 6, sodium gentisate 6 × 10^-2 M/l, water): 260 min | half-life at 100 µM ([2]; water, pH 6, sodium gentisate 8 × 10^-2 M/l, water): 295 min | half-life ([2]; water, pH 6.5, 1:1 complex with sodium gentisate, two-equilibria model, μ = 1.0 M, 25.0°C, pH 6.5, 520 nm, read-out: half-life of hydrolysis, 1:1 complex): 120 min | half-life ([2]; water, pH 6.5, model constant, sodium gentisate, μ = 1.0 M, 25.0°C, pH 6.5, 520 nm, read-out: t1/2 1:1 Complex): 119 min

COc1cc2c(c3c1c(=O)c1ccccc1n3C)C=CC(C)(C)O2 [perchlorate salt, acronycinium perchlorate]
solubility (qualitative) (Solubility): soluble in water and insoluble in acetone and benzene

COc1cc2c(c3c1c(OC(=O)C(C)(C)C)c1ccccc1[n+]3C)C=CC(C)(C)O2 [pivalylacronycinium perchlorate, Pivalylacronycinium Perchlorate]
k (hydrolysis) [1, 5]: 0.000717 s⁻¹ and 0.000645 s⁻¹ and 0.000482 s⁻¹ | t1/2 (hydrolysis) [1, 5]: 17.91 min and 23.98 min | half-life [1, 5]: 16.1 min

CCC(=O)Oc1c2ccccc2[n+](C)c2c3c(cc(OC)c12)OC(C)(C)C=C3 [propionylacronycinium perchlorate, Propionylacronycinium Perchlorate]
k (hydrolysis) ([1]; phosphate buffer, pH 7.50, 25°C): 0.000467 s⁻¹ | half-life ([1]; phosphate buffer, pH 7.5, phosphate buffer, pH 7.50, 25°C): 24.4 min | k (hydrolysis) [1, 6]: 0.000767 s⁻¹ and 0.000783 s⁻¹ | t1/2 (hydrolysis) [1, 6]: 14.6 min | half-life ([1]; phosphate buffer, pH 7.6, phosphate buffer, pH 7.60, 25°C): 14.9 min | half-life ([2]; 0.05 m gentisic acid, pH 2.7, gentisic acid (0.05 M), pH 2.70, 25°C, read-out: t1/2 (hydrolysis)): 103 min | half-life ([2]; 0.05 m gentisic acid, pH 2.78, gentisic acid (0.05 M), pH 2.78, 25°C, read-out: t1/2 (hydrolysis)): 86.4 min | k (hydrolysis) ([2]; pH 2.70, 25°C): 0.0067 min⁻¹ | k (hydrolysis) ([2]; pH 2.78, 25°C): 0.008 min⁻¹
